Values quoted from earlier work as cited in US7288559B2, “Carboxamide spirohydantoin CGRP receptor antagonists” (Merck + Co, Inc., priority 2003, dated 2007).
No end group written: not given here.

Columns and labels:
marmoset = conditions: electrical stimulation of the trigeminal ganglion
rat = conditions: trigeminal ganglion stimulation
rats = conditions: electrical stimulation of the dura mater, prior administration

Row | Compound | effect on increase in facial blood flow (marmoset) | effect on increased facial blood flow (rat) | effect on increase of middle meningeal artery diameter (rats)
1 | NCCCC[C@H](NC(=O)[C@@H](Cc1cc(Br)c(O)c(Br)c1)NC(=O)N1CCC(N2Cc3ccccc3NC2=O)CC1)C(=O)N1CCN(c2ccncc2)CC1 [BIBN4096BS] | blocked | – | –
2 | CGRP(8-37): a peptide CGRP antagonist (VTHRLAGLLSRSGGVVKNNFVPTNVGSKAF; ends and bridges not checked; UniProt P06881 90-119, looked up, fragment) | – | inhibited | blocked
